Measurements published in patent publication US8722652B2, “Acute treatment of social phobia” (Pherin Pharmaceuticals, Inc., priority 2005, dated 2014).

Key:
Type in all cases: in vivo, human
[1] = tested on: vomeronasal receptors; assay: Electrovomerogram dose-response (mass receptor potential of the vomeronasal receptors), local aerosol delivery with Multifunctional Miniprobe
Method: The effective amount of androsta-4,16-dien-3β-ol administered was determined in dose-response studies where the amplitude of the mass receptor potential of the vomeronasal receptors (electrogram of the vomeronasal organ or electrovomerogram) was recorded from volunteers diagnosed with generalized anxiety disorder (GAD), while locally delivering different concentrations of the steroid in aerosol form, using a Multifunctional Miniprobe® described in U.S. Pat. No. 5,303,703. This electrovomerogram allows precise measuring of the concentration dependent effect of locally delivered androsta-4,16-dien-3β-ol to vomeronasal receptors, and calculation of the half-maximal concentration, the Effective Concentration 50 (EC50).
Androsta-4,16-dien-3β-ol was delivered directly to the vomeronasal organ pit of anxious patients using the Multifunctional Miniprobe®, consisting of a concentric arrangement of Teflon® tubes having an inner non-polarized silver wire recording-electrode. […] The electrovomerogram recorded with the surface silver-wire electrode was electronically amplified and continuously monitored in a computer and a dose-response curve was obtained by plotting the peak amplitude of electrovomerograms produced by several different amounts of androsta-4,16-dien-3β-ol (ranging from 0 (control) to 1000 picograms). […]

[2] = tested on: patients diagnosed with generalized anxiety disorder; assay: Acute anxiety symptom scores (HAM-A, COVI, CGI) after delivery to the vomeronasal organ of patients with generalized anxiety disorder
[3] = tested on: patients diagnosed with generalized social phobia; assay: Phase-2 randomized double-blind study: public speaking and social interaction challenges in social phobia patients, intranasal spray
Description: A Phase-2 Randomized, Double-blind, Crossover Study of the Use of Single Doses of [3β]-Androsta-4,16-dien-3-ol for Management of the Symptoms of Social phobia
The following describes a study of the effects of the vomeropherin [3β]-androsta-4,16-dien-3-ol on human female patients suffering from social phobia.
The study comprised 40 patients with clinical diagnosis of Social Phobia. Each patient was randomly assigned to one of the following double-blind treatment groups: 800 nanogram [3β]-Androsta-4,16-dien-3-ol or placebo delivered intranasally in spray form. Each patient participated in the Treatment Phase as follows.
First Visit: the patient visited the study center and the following activities were conducted during this visit: Pre-Challenge: After arrival at the study center, the patient completed self-reports of their usual anxiety symptoms. Public Speaking Challenge: The patient was administered a spray (50 microliters) of placebo to each nostril, and the procedures for the Public Speaking Challenge were then explained to the patient. The patient was given four minutes to prepare one of several topics for a four-minute speech, without notes, in front of an audience of several people who evaluated the speech and videotaped it. Immediately after completing the preparation period, the patient completed self-reports of their anticipatory anxiety and the Investigator then rated the patient's anticipatory anxiety. The patient gave their speech. Immediately after completing the speech, the patient completed self-reports of anxiety experienced during the speech. The Investigator then rated the anxiety experienced by the patient. Social Interaction Challenge: Approximately one hour after completion of the Public Speaking Challenge, the patient was administered another dose of placebo in each nostril, and the procedures for a Social Interaction Challenge appropriate for one of the patient's most-feared social interaction situations were then described to the patient. Then, the patient completed self-reports of their anticipatory anxiety and the Investigator rated the patient's anticipatory anxiety. Then, the patient participated in a four-minute mock social interaction while being observed by several raters and videotaped. Immediately after completing the social interaction, the patient completed self-reports of anxiety experienced during the interaction. Then, the Investigator rated the anxiety experienced by the patient. Those patients that during the first visit responded to placebo during the public speaking or the social interaction challenge were terminated from the study at that time. Patients non-responding to placebo during the first visit participated in a second visit where they were randomly dosed again with placebo, or with 800 nanograms androsta-4,16-dien-3β-ol per nostril (total dose=1,600 nanograms) delivered in spray form. Each patient was challenged and also the anxiety symptoms were scores using the same procedure performed during first visit.
The mean score obtained during the first visit (baseline scores) for each, anticipatory public speaking, performance public speaking, anticipatory social interaction and performance social interaction, was subtracted from the mean score (same parameter) obtained during the second visit. The result is a measure of symptom improvement.

[4] = 1 nanogram to the vomeronasal organ, GAD patients n = 20
[5] = 1600 nanogram intranasally, n = 40, Mean Baseline Score − Mean Score After Treatment

C[C@@]12C=CC[C@H]1[C@@H]1CCC3=C[C@@H](O)CC[C@]3(C)[C@H]1CC2 [androsta-4,16-dien-3β-ol]
EC50 (half-maximal concentration, electrovomerogram peak amplitude) ([1]; delivered directly to vomeronasal organ pit, aerosol from propylene glycol, GAD volunteers): 0.5 nanograms | KD ([1]; set equal to EC50 (linear receptor occupancy-response, model of A. J. Clark)): 0.5 ng | Mean acute symptom improvement, CGI (Mean Baseline Score − Mean Score after Treatment) [2, 4]: 1.17 | Mean acute symptom improvement, COVI (Mean Baseline Score − Mean Score after Treatment) [2, 4]: 2.8 | Mean acute symptom improvement, HAM-A (Mean Baseline Score − Mean Score after Treatment) [2, 4]: 10.6 | Acute anxiety symptoms scores (HAM-A, COVI, CGI) ([2]; concentrations above the EC50, 20 human female GAD patients, effect lasting 30 minutes after intranasal administration): significantly reduced | Anticipatory and Performance anxiety scores ([3]; 5 minutes after administration, Social Interaction and Public Speaking): notably and significantly decreased | Mean Symptom Improvement, Anticipatory Public Speaking Anxiety [3, 5]: 10.417 | Mean Symptom Improvement, Anticipatory Social Interaction Anxiety [3, 5]: 12.166 | Mean Symptom Improvement, Performance Public Speaking Anxiety [3, 5]: 26.294 | Mean Symptom Improvement, Performance Social Interaction Anxiety [3, 5]: 14.197 | Symptom improvement versus placebo ([3]; second visit versus first-visit baseline scores): much greater and significant symptom improvement than placebo
